{"source": "patent US20230054767A1", "about": "“COMBINATIONS” (Recurium IP Holdings, LLC, priority 2019, published 2023)", "type_in_all_cases": "in vivo", "key": {"MCF-7 cells [1]": {"test_system": "MCF-7 cells", "test": "Example 1: MCF-7 xenograft tumor model, Compound A and Compound 5", "details": "BALB/c nude mice, orally once a day for 21 days, Compound A 10 mg/kg, Compound 5 200 mg/kg, alone or combined", "procedure": "Example 1: MCF-7 cells were grown in DMEM Medium supplemented with 15% heat inactivated fetal bovine serum at 37° C. in an atmosphere of 5% CO2 in air. BALB/c nude mice were implanted subcutaneously on the 2nd right mammary fat pad with a single cell suspension of 95% viable tumor cells (1.5×10^7) in 200 μL DMEM Matrigel mixture (1:1 ratio) without serum. When tumors reached approximately 172 mm^3, animals were randomly distributed into treatment groups of 10 animals each and dosed orally, once a day for 21 days as follows: vehicle at the same volume as the single agent treatment; Compound A (alternatively referred to as “Compound (A)” in the specification and figures) at 10 mg/kg; Compound 5 at 200 mg/kg; and the combination treatment of Compound A 10 mg/kg) and Compound 5 (200 mg/kg). In addition, estradiol benzoate injections were given subcutaneously (40 μg/ 20 μL, twice weekly) to all treatment groups. Tumor volumes were evaluated twice per week to calculate tumor volume over time, and mice were weighed twice per week as a surrogate for signs of toxicity. Tumor growth inhibition (TGI) was calculated using the following equation TGI=(1−(Td−T0)/(Cd−C0))×100%. […] The percent tumor regression was calculated using the formula: (1−(Td/T0))×100%."}, "MCF-7 cells [2]": {"test_system": "MCF-7 cells", "test": "Example 2: MCF-7 xenograft tumor model, Compound A (5 mg/kg) and Compound 5", "details": "BALB/c nude mice, orally once a day for 24 days, Compound 5 200 mg/kg, alone or combined", "procedure": "(§1) Example 1: MCF-7 cells were grown in DMEM Medium supplemented with 15% heat inactivated fetal bovine serum at 37° C. in an atmosphere of 5% CO2 in air. BALB/c nude mice were implanted subcutaneously on the 2nd right mammary fat pad with a single cell suspension of 95% viable tumor cells (1.5×10^7) in 200 μL DMEM Matrigel mixture (1:1 ratio) without serum. […] Tumor volumes were evaluated twice per week to calculate tumor volume over time, and mice were weighed twice per week as a surrogate for signs of toxicity. […] The percent tumor regression was calculated using the formula: (1−(Td/T0))×100%.\nExample 2: MCF-7 cells were grown in DMEM Medium supplemented with 15% heat inactivated fetal bovine serum at 37° C. in an atmosphere of 5% CO2 in air. […] Tumor volumes were evaluated twice per week to calculate tumor volume over time, and mice were weighed twice per week as a surrogate for signs of toxicity. TGI and Tumor regression values were calculated using the equations provided in Example 1. […]"}, "MCF-7 cells [3]": {"test_system": "MCF-7 cells", "test": "Example 3: MCF-7 xenograft tumor model, Compound A and Compound 6", "details": "BALB/c nude mice, orally once a day for 28 days, Compound A 10 mg/kg, Compound 6 50 mg/kg, alone or combined", "procedure": "as §1\nExample 3: MCF-7 cells were grown in DMEM Medium supplemented with 15% heat inactivated fetal bovine serum at 37° C. in an atmosphere of 5% CO2 in air. […] Tumor volumes were evaluated twice per week to calculate tumor volume over time, and mice were weighed twice per week as a surrogate for signs of toxicity. TGI and Tumor regression values were calculated using the equations provided in Example 1."}}, "data": [{"smiles": "C[C@@H]1Cc2c([nH]c3ccccc23)[C@@H](c2c(F)cc(/C=C/C(=O)O)cc2F)N1C12CC(C1)C2", "note": "[Compound A]", "values": [{"measurement": "TUMOR REGRESSION % (DAY 21)", "setting": "MCF-7 cells [1]", "result": 0, "unit": "%"}, {"measurement": "TGI % (DAY 21)", "setting": "MCF-7 cells [1]; estradiol benzoate s.c.", "result": 81, "unit": "%"}, {"measurement": "TUMOR REGRESSION % (DAY 24)", "setting": "MCF-7 cells [2]", "result": 8, "unit": "%"}, {"measurement": "TGI % (DAY 24)", "setting": "MCF-7 cells [2]; estradiol benzoate s.c.", "result": 108, "unit": "%"}, {"measurement": "TUMOR REGRESSION % (DAY 29)", "setting": "MCF-7 cells [3]", "result": 33, "unit": "%"}, {"measurement": "TGI % (DAY 29)", "setting": "MCF-7 cells [3]; estradiol benzoate s.c.", "result": 120, "unit": "%"}]}]}
